Values quoted from earlier work, collected in patent US20110152294A1, “USE OF OSMOLYTES OBTAINED FROM EXTREMOPHILIC BACTERIA FOR THE PRODUCTION OF INHALABLE MEDICAMENTS FOR THE PROPHYLAXIS AND TREATMENT OF PULMONARY AND CARDIOVASCULAR DISEASES AND AN INHALATION DEVICE COMPRISING OSMOLYTE AS ACTIVE AGENT COMPONENT” (priority 2003, published 2011).

System: cornea and iris of the eyes of rabbits
Details: external application on cornea and iris of rabbit eyes; effects disappeared afterwards

CC1=NC[C@H](O)[C@@H](C(=O)O)N1 [hydroxyectoine]
eye irritation after external application: initial irritation and sensitization of the conjunctiva
